Data on two compounds can be found in patent publication US4078049A, “Acetylcholine assay” (Hoffmann-La Roche Inc., priority 1977, dated 1978).

The structures appear in SMILES notation.

In the data set the test system is antibody in the antiserum of rabbit immunized by the acetylcholine bovine serum albumin immunogen. Nature of the data set: Radioimmunoassay specificity: inhibition of binding of acetylcholine-H^3 to the antibody. As for the experimental part:
The volume was adjusted to 0.5 ml with phosphate-buffered saline, pH 7.4, which is the optimal pH for the assay. […]. […] After 2 washings with 50% saturated ammonium sulfate, the precipitate was dissolved in 0.5 ml of water. […] The 12 ml washings were all collected in the vial. The radioactivity was then counted with a Beckman liquid scintillation counter. The dilution of the antiserum chosen for further studies was 1:50.

In the case of `CC(=O)OCC[N+](C)(C)C` [Acetylcholine, acetylcholine], the IC50 (read-out: concentration producing 50% inhibition of binding of acetylcholine --H^3 to the antibody, antiserum 1:50, incubated 2 hours at 4° C, pH 7.4, eserine present, ammonium sulfate precipitation) was determined as 0.03 nM.

For `CC(=O)O` [acetate], the “recognition by the antibody (competition with labelled acetylcholine)” value (antiserum incubated with acetate in the presence of labelled acetylcholine) is given as “failed to recognize”.
